Assay results published in the NIST ThermoML archive (doi:10.1016/j.jct.2011.02.003).
Numbers after ± are expanded uncertainties.

Experiments:
[1] = Crystal; DTA
[2] = Molar enthalpy of transition or fusion; details: Crystal; DSC

## C[C@]12CCC(=O)C=C1CC[C@@H]1[C@@H]2CC[C@@]2(C)[C@H]1CC[C@]2(C)O [17-methyltestosterone]
[1]
  Normal melting temperature: 164.19 ± 0.71 °C
[2]
  Molar enthalpy of transition or fusion: 5.98 ± 1.79 kcal/mol

## Nc1ccccc1O [2-hydroxybenzenamine]
[1]
  Normal melting temperature: 175.57 ± 0.93 °C
[2]
  Molar enthalpy of transition or fusion: 6.39 ± 1.91 kcal/mol
